Like-named read-outs stand apart in the source and are kept apart here.

Assay [1] deals with mono-methyl arginine in RKO cells. Kind of assay: RKO Methylation Assay, In Cell Western (ICW) for mono-methyl arginine and DNA content. The class given is cell-based. The note with it: Homo sapiens, RKO, 72 h. The essentials:
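RKO cells treated with compound for 72 hours at 37 °C, then methanol-fixed and stained overnight at 4 °C with anti-mono-methyl arginine antibody, plus DRAQ5 for DNA. Signal ratio from 700 and 800 nm infrared scans normalized to DMSO (minimum) and 20 μM reference compound (maximum); EC30 from triplicate curves.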

Another assay deals with human PRMT8 (Homo sapiens, UniProt Q9NR22). In words: PRMT8 Biochemical Assay (3H-SAM Flashplate, peptide substrate). From the text:
S-adenosylmethionine (SAM), S-adenosylhomocysteine (SAH), bicine, Tween20, dimethylsulfoxide (DMSO), bovine skin gelatin (BSG), isopropyl-β-D-thiogalactopyranoside (IPTG), and Tris(2-carboxyethyl)phosphine hydrochloride solution (TCEP) were purchased from Sigma-Aldrich at the highest level of purity possible. ^3H-SAM was purchase from American Radiolabeled Chemicals with a specific activity of 80 Ci/mmol. 384-well streptavidin Flashplates were purchased from PerkinElmer.
Peptide representative of human histone H4 residues 31-45 was synthesized with an N-terminal linker-affinity tag motif and a C-terminal amide cap by 21st Century Biochemicals.
E. coli (BL21(DE3) Gold, Stratagene) made competent by the CaCl2 method were transformed with the PRMT8 construct and ampicillin selection. Protein over-expression was accomplished by growing the PRMT8 expressing E. coli clone and inducing expression with 0.3 mM IPTG at 16° C. The culture was grown for 12 hours, harvested by centrifugation, and stored at −80° C. for purification.
GST-tagged PRMT8 was eluted with 50 mM Tris, 2 mM glutathione, pH 7.8. Pooled fractions were cleaved by thrombin (10 U) and dialysed in buffer A. GST was removed by reloading the cleaved protein sample onto glutathione sepharose column and PRMT8 was collected in the flow-through fractions. PRMT8 was purified further by ceramic hydroxyapatite chromatography. The column was washed with 50 mM phosphate buffer, 100 mM NaCl, 5% glycerol, 5 mM β-mercaptoethanol, pH 7.8 and PRMT8 was eluted by 100 mM phosphate in the same buffer. Protein was concentrated and buffer was exchanged to 50 mM Tris, 300 mM NaCl, 10% glycerol, 5 mM β-mercaptoethanol, pH 7.8 by ultrafiltration.
General Procedure for PRMT8 Enzyme Assays on Peptide Substrates.
The assays were all performed in a buffer consisting of 20 mM Bicine (pH=7.6), 1 mM TCEP, 0.005% BSG, and 0.002% Tween 20, prepared on the day of use. […] DMSO (1 ul) was added to Columns 11, 12, 23, 24, rows A-H for the maximum signal control and 1 ul of SAH, a known product and inhibitor of PRMT8, was added to columns 11, 12, 23, 24, rows I-P for the minimum signal control. A cocktail (40 ul) containing the PRMT8 enzyme was added by Multidrop Combi (Thermo-Fisher). The compounds were allowed to incubate with PRMT8 for 30 min at room temperature, then a cocktail (10 ul) containing ^3H-SAM and peptide was added to initiate the reaction (final volume=51 ul). […] The assays were stopped by the addition of non-radiolabeled SAM (10 ul) to a final concentration of 400 uM, which dilutes the ^3H-SAM to a level where its incorporation into the peptide substrate is no longer detectable. 50 ul of the reaction in the 384-well polypropylene plate was then transferred to a 384-well Flashplate and the biotinylated peptides were allowed to bind to the streptavidin surface for at least 1 hour before being washed once with 0.1% Tween20 in a Biotek ELx405 plate washer. The plates were then read in a PerkinElmer TopCount plate reader to measure the quantity of ^3H-labeled peptide bound to the Flashplate surface, measured as disintegrations per minute (dpm) or alternatively, referred to as counts per minute (cpm).
Where dpm=disintegrations per minute, cmpd=signal in assay well, and min and max are the respective minimum and maximum signal controls.
Where top and bottom are the normally allowed to float, but may be fixed at 100 or 0 respectively in a 3-parameter fit. The Hill Coefficient normally allowed to float but may also be fixed at 1 in a 3-parameter fit. Y is the % inhibition and X is the compound concentration.

[2] abbreviates: RKO cells, 72 hours, mono-methyl arginine, percent activation, single experiment or average of multiple experiments, read-out: EC30 (In Cell Western data, Numerical).
Setting [3] is: single experiment or average of multiple experiments.
Where [4] appears, read: RKO cells, 72 hours, mono-methyl arginine, percent activation, class symbols, read-out: EC30 (In Cell Western data).

human PRMT8, sequence (Q9NR22 whole entry): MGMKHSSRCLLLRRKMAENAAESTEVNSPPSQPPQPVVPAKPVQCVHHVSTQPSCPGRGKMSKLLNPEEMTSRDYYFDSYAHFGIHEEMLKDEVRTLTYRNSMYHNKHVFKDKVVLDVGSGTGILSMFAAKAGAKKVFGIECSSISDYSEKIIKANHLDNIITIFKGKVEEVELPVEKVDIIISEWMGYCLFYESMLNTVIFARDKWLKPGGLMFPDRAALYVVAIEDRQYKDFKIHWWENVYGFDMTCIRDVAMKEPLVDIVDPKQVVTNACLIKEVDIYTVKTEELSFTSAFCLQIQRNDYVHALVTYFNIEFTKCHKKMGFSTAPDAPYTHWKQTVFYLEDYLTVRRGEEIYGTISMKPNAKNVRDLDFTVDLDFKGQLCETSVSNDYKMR

`CN(CCN)Cc1n[nH]cc1-c1ccc(OC(F)(F)F)cc1` [Compound 105]: the EC30 in assay [1] (setting [2]) was 2.28 µM. The compound further displayed an IC50 at human PRMT8 (setting [3]) of 130 nM.
In the same order, the values of `CN(CCN)Cc1n[nH]cc1-c1ccc(C(F)(F)F)cc1` [Compound 103] are 3.67 µM and 366 nM.
For the compound `CNCCN(C)Cc1c[nH]nc1-c1ccc(OCC2CC2)c(F)c1` [Compound 298], the results for the EC30 in assay [1] (setting [4]) and in assay [1] (setting [2]) were under 3 µM and 0.104 µM, respectively. Besides, the IC50 was under 100 nM against human PRMT8 and 16.3 nM against human PRMT8 (setting [3]).
As to `CNCCN(C)Cc1c[nH]nc1-c1ccc(OC(COC)COC)cc1` [Compound 316], the EC30 was under 3 µM in assay [1] (setting [4]) and 0.063 µM in assay [1] (setting [2]). In addition, the IC50 was under 100 nM at human PRMT8 and 43 nM against human PRMT8 (setting [3]).
In the same order, the values of `CNCCN(C)Cc1c[nH]nc1-c1ccc(OC2CC(OC)C2)cc1` (stereo not shown) [Compound 315] are under 3 µM, 0.843 µM, 101 to 1000 nM and 108 nM.
In the same order, the values of `CNCCN(C)Cc1c[nH]nc1-c1ccc(OC2CC2)c(F)c1` [Compound 301] are under 3 µM, 0.128 µM, under 100 nM and 23.5 nM.
On to `COc1cccc(-c2n[nH]cc2CN(C)CCN)c1` [Compound 130], for which the EC30 in assay [1] (setting [2]) is 3.92 µM. Moreover, half-maximal inhibition on human PRMT8 (setting [3]) (IC50) was put at 645 nM.
As for `CNCCN(C)Cc1c[nH]nc1-c1ccc(OCC2CCOCC2)cc1` [Compound 284], the EC30 in assay [1] (setting [4]) was under 3 µM; in assay [1] (setting [2]), 0.856 µM. In addition, the IC50 against human PRMT8 was under 100 nM; on human PRMT8 (setting [3]) it was 90.2 nM.
For the compound `Cc1cccc(-c2n[nH]cc2CN(C)CCN)c1` [Compound 131], in assay [1] (setting [2]), the EC30 was determined as 2.56 µM. This compound showed an IC50 at human PRMT8 (setting [3]) of 360 nM.
In the same order, the values of `CN(CCN)Cc1n[nH]cc1-c1ccc(OC2CC2)cc1` [Compound 119] are 4.54 µM and 336 nM.
The matching figures for `CN(CCN)Cc1c[nH]nc1-c1ccc(C(F)(F)F)c(Cl)c1` [Compound 117]: 1.29 µM and 87.8 nM.
With `CNCCN(C)Cc1c[nH]nc1-c1ccc(OCC2CCOC2)cc1` (stereo not shown) [Compound 285], the concentration for an effect of 30% (EC30) in assay [1] (setting [4]) was under 3 µM; in assay [1] (setting [2]), 0.62 µM. Besides, the IC50 on human PRMT8 was under 100 nM; against human PRMT8 (setting [3]), 69.2 nM.
Regarding `CNCCN(C)Cc1c[nH]nc1-c1ccc(OC2CCC(O)CC2)cc1` (stereo not shown) [Compound 299], the results for the EC30 in assay [1] (setting [4]) and in assay [1] (setting [2]) were under 3 µM and 0.877 µM, respectively. Besides, the values for the IC50 on human PRMT8 and at human PRMT8 (setting [3]) were under 100 nM and 55 nM, respectively.
In the same order, the values of `CNCCN(C)Cc1c[nH]nc1-c1ccc(OC(COC)CC(C)C)cc1` (stereo not shown) [Compound 314] are under 3 µM, 0.51 µM, 101 to 1000 nM and 110 nM.
As to `CN(CCN)Cc1c[nH]nc1-c1ccc(F)cc1F` [Compound 99], the EC30 in assay [1] (setting [2]) was determined as 11.8 µM. The same compound showed an IC50 against human PRMT8 (setting [3]) of 2200 nM.
For `CNCCN(C)Cc1c[nH]nc1-c1ccc(OCCOC)cc1` [Compound 289], the EC30 in assay [1] (setting [4]) was under 3 µM; in assay [1] (setting [2]), 0.419 µM. Further, the IC50 is under 100 nM at human PRMT8 and 46 nM at human PRMT8 (setting [3]).
In the same order, the values of `CNCCN(C)Cc1c[nH]nc1-c1ccc(OCC(C)C)cc1` [Compound 306] are under 3 µM, 0.1 µM, under 100 nM and 18.5 nM.
In the same order, the values of `CCC(CC)Oc1ccc(-c2n[nH]cc2CN(C)CCNC)cc1` [Compound 290] are under 3 µM, 0.021 µM, under 100 nM and 10.6 nM.
Consider `CN(CCN)Cc1c[nH]nc1-c1cccc(Cl)c1` [Compound 122], for which the EC30 in assay [1] (setting [2]) was 3.48 µM. The half-maximal inhibitory concentration (IC50) on human PRMT8 (setting [3]) amounted to 548 nM.
The matching figures for `CN(CCN)Cc1n[nH]cc1-c1ccc(C#N)cc1` [Compound 100]: 2.98 µM and 290 nM.
As for `CN(CCN)Cc1c[nH]nc1-c1ccc(C2CCOCC2)cc1` [Compound 98], the EC30 in assay [1] (setting [2]) was found to be 2.85 µM. The same compound gave an IC50 against human PRMT8 (setting [3]) of 156 nM.
As for `CNCCN(C)Cc1c[nH]nc1-c1ccc(NCC(C)C)cc1` [Compound 296], the results for the EC30 in assay [1] (setting [4]) and in assay [1] (setting [2]) were under 3 µM and 0.478 µM, respectively. The IC50 is under 100 nM against human PRMT8 and 57.6 nM against human PRMT8 (setting [3]).
Take `CCn1cc(CN(C)CCNC)c(-c2ccc(F)cc2)n1` [Compound 8]: the 30% effect concentration (EC30) in assay [1] (setting [2]) is over 20 µM. On human PRMT8 (setting [3]), this compound yielded an IC50 of 7200 nM.
The matching figures for `CN(CCN)Cc1c[nH]nc1-c1ccc(OCC(F)(F)F)cc1` [Compound 96]: 0.92 µM and 171 nM.
Consider `CNCCN(C)Cc1c[nH]nc1-c1ccc(C(C)(C)COC)cc1` [Compound 313], for which the EC30 is under 3 µM in assay [1] (setting [4]) and 0.894 µM in assay [1] (setting [2]). The figures for the IC50 on human PRMT8 and on human PRMT8 (setting [3]) were under 100 nM and 60.1 nM, respectively.
Consider `CNCCN(C)Cc1c[nH]nc1-c1ccc(OC2CCOCC2)c(Cl)c1` [Compound 292], for which the results for the EC30 in assay [1] (setting [4]) and in assay [1] (setting [2]) were under 3 µM and 0.098 µM, respectively. Further, the results for the IC50 at human PRMT8 and on human PRMT8 (setting [3]) were under 100 nM and 8.52 nM, respectively.
For `CN(CCN)Cc1c[nH]nc1-c1ccc(Cl)c(F)c1` [Compound 118], in assay [1] (setting [2]), the EC30 stood at 0.314 µM. For the same compound, half-maximal inhibition against human PRMT8 (setting [3]) (IC50) required 136 nM.
Regarding `CNCCN(C)Cc1c[nH]nc1-c1ccc(OC2CCOCC2)c(F)c1` [Compound 291], the EC30 in assay [1] (read-out: EC30 (In Cell Western data)) was under 3 µM; in assay [1] (read-out: EC30 (In Cell Western data, Numerical, μM)), 0.154 µM. Also, the IC50 is under 100 nM at human PRMT8 and 25.4 nM at human PRMT8 (setting [3]).
For the compound `CCN(CC)C(=O)c1ccc(-c2n[nH]cc2CN(C)CCN)cc1` [Compound 143], the EC30 in assay [1] (setting [2]) was over 20 µM. At human PRMT8 (setting [3]), this compound displayed an IC50 of 1750 nM.
Turning to `CN(CCN)Cc1n[nH]cc1-c1ccc(OC(F)F)cc1` [Compound 138], the 30% effect concentration (EC30) in assay [1] (setting [2]) was 2.28 µM. Half-maximal inhibition on human PRMT8 (setting [3]) (IC50) required 131 nM.
As for `CN(CCN)Cc1c[nH]nc1-c1ccc(OC2CC2)cc1` [Compound 114], the EC30 in assay [1] (setting [2]) came out at 0.607 µM. This compound also yielded an IC50 against human PRMT8 (setting [3]) of 47.5 nM.
Regarding `CC[C@H](C)Oc1ccc(-c2n[nH]cc2CN(C)CCNC)cc1` [Compound 309], the EC30 in assay [1] (setting [4]) was under 3 µM; in assay [1] (setting [2]), 0.024 µM. Besides, the IC50 at human PRMT8 was under 100 nM; on human PRMT8 (setting [3]) it was 13 nM.
The matching figures for `CNCCN(C)Cc1c[nH]nc1-c1ccc(OC2CCC2)cc1` [Compound 304]: under 3 µM, 0.155 µM, under 100 nM and 22.4 nM.
Turning to `COc1ccc(-c2n[nH]cc2CN(C)CCN)cc1F` [Compound 134], the 30% effect concentration (EC30) in assay [1] (setting [2]) is 1.09 µM. The same compound yielded an IC50 at human PRMT8 (setting [3]) of 251 nM.
The matching figures for `Cc1ccc(-c2n[nH]cc2CN(C)CCN)cc1Cl` [Compound 126]: 1.23 µM and 232 nM.
As to `CNCCN(C)Cc1c[nH]nc1-c1ccc(OCC2CCC2)cc1` [Compound 307], the 30% effect concentration (EC30) in assay [1] (setting [4]) was under 3 µM; in assay [1] (setting [2]) it was 0.109 µM. Also, the IC50 on human PRMT8 was under 100 nM; on human PRMT8 (setting [3]), 14 nM.
`CNCCN(C)Cc1c[nH]nc1-c1ccc(OC2CC2)cc1` [Compound 293]: the EC30 in assay [1] (setting [4]) was under 3 µM; in assay [1] (setting [2]), 0.336 µM. In addition, the concentration for half-maximal inhibition (IC50) against human PRMT8 is under 100 nM; on human PRMT8 (setting [3]), 28 nM.

Broadly, the EC30 is the point of the concentration-response curve where the effect stands at 30%. As a reminder, the IC50 is the concentration that gives 50% inhibition. A higher IC50 goes with weaker potency in that assay.

These data come from patent US9776972B2, “Pyrazole derivatives as arginine methyltransferase inhibitors and uses thereof” (priority 2013, dated 2017).
